The experiment has as its target S. pyogenes P5C reductase (Streptococcus pyogenes, UniProt Q9A1S9). Kind of experiment: P5C reductase inhibition assay. Type of experiment: biochemical. The settings on record: read-out: Enzyme inhibition at 0.2 mM.

The structures appear in SMILES notation.

For orientation: inhibition means the drop in the measured response relative to a control, in per cent. Take `NC(P(=O)(O)O)P(=O)(O)O` [Compound 01, aminomethylenebisphosphonic acid]: the inhibition at 200 µM worked out at 3 ± 2.1%.

These data come from paper PMC3836680 (Amino acids, 2011).
